Measurements reported in publication PMC2901852 (Chemical biology & drug design, 2009).
Like-named read-outs stand apart in the source and are kept apart here.

What was measured:
[1] = 15-min incubation with rat liver microsomes; cited from earlier work
[2] = target: T1, Human recombinant MMP-2 (Homo sapiens, UniProt P08253); test: Inhibition of MMP-2, fluorogenic substrate hydrolysis; assay type: biochemical
T1 sequence (P08253 110-660): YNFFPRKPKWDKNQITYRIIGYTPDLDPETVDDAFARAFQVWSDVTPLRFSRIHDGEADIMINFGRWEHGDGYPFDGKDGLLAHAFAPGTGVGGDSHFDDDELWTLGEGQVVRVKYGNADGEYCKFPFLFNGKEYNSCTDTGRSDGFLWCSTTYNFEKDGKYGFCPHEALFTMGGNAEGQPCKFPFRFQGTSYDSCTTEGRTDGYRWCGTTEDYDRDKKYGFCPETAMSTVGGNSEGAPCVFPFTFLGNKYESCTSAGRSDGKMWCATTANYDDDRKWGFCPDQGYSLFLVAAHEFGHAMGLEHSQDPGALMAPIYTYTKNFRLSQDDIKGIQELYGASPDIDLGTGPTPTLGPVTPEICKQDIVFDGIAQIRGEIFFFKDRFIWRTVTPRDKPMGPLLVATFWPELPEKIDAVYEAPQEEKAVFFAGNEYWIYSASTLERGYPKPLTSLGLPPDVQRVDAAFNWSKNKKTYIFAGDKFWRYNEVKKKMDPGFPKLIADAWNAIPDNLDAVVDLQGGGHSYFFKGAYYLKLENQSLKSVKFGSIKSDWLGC

[3] = In vitro metabolism, incubation with rat liver microsomes; assay type: in vitro ADME; conditions: more metabolically stable than SB-3CT
[4] = target: catalytic domain of human recombinant MMP-3 (Homo sapiens, UniProt P08254); test: Inhibition of MMP-3 catalytic domain, fluorogenic substrate hydrolysis; assay type: biochemical
Chain of catalytic domain of human recombinant MMP-3 (P08254 100-272 limits assumed): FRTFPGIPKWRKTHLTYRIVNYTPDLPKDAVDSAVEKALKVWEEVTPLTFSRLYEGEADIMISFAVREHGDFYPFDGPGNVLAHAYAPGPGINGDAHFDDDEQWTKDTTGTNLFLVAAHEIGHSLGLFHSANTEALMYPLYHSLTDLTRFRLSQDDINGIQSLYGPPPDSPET

[5] = target: Human recombinant MMP-9 (Homo sapiens, UniProt P14780); test: Inhibition of MMP-9, fluorogenic substrate hydrolysis; assay type: biochemical
Chain of Human recombinant MMP-9 (P14780 94-707): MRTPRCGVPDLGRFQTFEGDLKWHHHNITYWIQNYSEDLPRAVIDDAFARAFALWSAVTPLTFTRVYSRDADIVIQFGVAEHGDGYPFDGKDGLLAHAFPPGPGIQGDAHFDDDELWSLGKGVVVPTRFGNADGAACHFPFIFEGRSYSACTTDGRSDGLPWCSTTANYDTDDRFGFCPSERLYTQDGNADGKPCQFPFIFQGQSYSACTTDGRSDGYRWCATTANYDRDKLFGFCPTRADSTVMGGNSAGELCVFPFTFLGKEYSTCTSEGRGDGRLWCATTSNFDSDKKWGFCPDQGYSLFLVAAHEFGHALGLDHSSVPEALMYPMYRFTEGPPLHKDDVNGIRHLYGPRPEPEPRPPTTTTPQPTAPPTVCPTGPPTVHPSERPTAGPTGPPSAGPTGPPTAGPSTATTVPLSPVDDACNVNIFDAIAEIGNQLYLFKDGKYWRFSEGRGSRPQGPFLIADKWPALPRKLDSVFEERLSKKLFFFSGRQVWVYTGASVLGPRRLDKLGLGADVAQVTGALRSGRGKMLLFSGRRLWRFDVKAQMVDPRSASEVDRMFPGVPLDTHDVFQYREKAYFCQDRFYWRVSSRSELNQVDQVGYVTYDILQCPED

[6] = target: T2, Human recombinant active MMP-7 (Homo sapiens, UniProt P09237); test: Inhibition of MMP-7, fluorogenic substrate hydrolysis; assay type: biochemical
T2 sequence (P09237 95-267): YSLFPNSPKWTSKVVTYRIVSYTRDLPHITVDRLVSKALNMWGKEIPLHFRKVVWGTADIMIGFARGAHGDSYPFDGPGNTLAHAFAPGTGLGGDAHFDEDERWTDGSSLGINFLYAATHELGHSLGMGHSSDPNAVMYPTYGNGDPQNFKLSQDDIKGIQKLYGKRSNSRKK

[7] = target: T3, catalytic domain of human recombinant MMP-1 (Homo sapiens, UniProt P03956); test: Inhibition of MMP-1 catalytic domain, fluorogenic substrate hydrolysis; assay type: biochemical
T3 sequence (P03956 100-269 limits assumed): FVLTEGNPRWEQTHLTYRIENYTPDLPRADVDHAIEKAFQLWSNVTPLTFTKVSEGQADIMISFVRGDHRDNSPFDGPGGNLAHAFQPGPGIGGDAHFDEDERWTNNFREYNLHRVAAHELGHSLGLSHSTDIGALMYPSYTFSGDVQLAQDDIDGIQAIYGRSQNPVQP

[8] = target: catalytic domain of human recombinant MMP-14 (MT1-MMP) (Homo sapiens, UniProt P50281); test: Inhibition of MMP-14 catalytic domain, fluorogenic substrate hydrolysis; assay type: biochemical

For `O=S(=O)(CC1CS1)c1ccc(Oc2ccccc2)cc1` (centres unmarked) [Compound 1, 2-(4-phenoxyphenylsulfonylmethyl)thiirane], the compound remaining [1] is given as 0.5%.

`C[C@H]([C@H]1CS1)S(=O)(=O)c1ccc(Oc2ccccc2)cc1` [Compound 5c, (2R)-2-(1R-(4-Phenoxyphenylsulfonyl)ethyl)thiirane] showed a Ki [2] of 4100 ± 100 nM.

With `C[C@H]([C@@H]1CS1)S(=O)(=O)c1ccc(Oc2ccccc2)cc1` [Compound 5d, (2S)-2-(1R-(4-Phenoxyphenylsulfonyl)ethyl)thiirane] the “Metabolic stability relative to SB-3CT” value [3] was over 50 fold, the inhibition at 60 µM ([4]; read-out: Inhibition at 60 μM) was 9% and the Ki [2] was 390 ± 30 nM. For the same compound, the koff ([2]; read-out: 10^4 koff) was 0.00081 ± 6e-05 s⁻¹, the kon ([2]; read-out: 10^–3 kon) was 2100 ± 100 M⁻¹ s⁻¹ and the Ki [5] was 3300 ± 200 nM. It also gave a koff ([5]; read-out: 10^4 koff) of 0.00072 ± 4e-05 s⁻¹, a kon ([5]; read-out: 10^–3 kon) of 220 ± 10 M⁻¹ s⁻¹ and a Ki [6] of over 60000 nM. For the same compound, the Ki [7] was over 60000 nM, the Ki [8] was 2100 ± 200 nM and the koff ([8]; read-out: 10^4 koff) was 0.00095 ± 9e-05 s⁻¹. For the same compound, the kon ([8]; read-out: 10^–3 kon) was 460 ± 10 M⁻¹ s⁻¹.

Compound `C[C@@H]([C@@H]1CS1)S(=O)(=O)c1ccc(Oc2ccccc2)cc1` [Compound 5a, (2S)-2-(1S-(4-Phenoxyphenylsulfonyl)ethyl)thiirane] has a Ki ([2]; MMP-2, linear competitive inhibitors) of 7200 ± 100 nM.

In the case of `C[C@@H]([C@H]1CS1)S(=O)(=O)c1ccc(Oc2ccccc2)cc1` [Compound 5b, (2R)-2-(1S-(4-Phenoxyphenylsulfonyl)ethyl)thiirane], the “Metabolic stability relative to SB-3CT” value [3] is reported as over 50 fold, the “inhibition at 60 µM” value ([4]; MMP-3cat, 60 μM inhibitor) is reported as 8% Inhibition at 60 μM and the Ki ([2]; MMP-2) is reported as 180 ± 30 nM. For the same compound, the “10^–3 kon” value ([2]; MMP-2, slow-binding onset rate constant, values printed as 10^–3 kon) was 3.3 ± 0.1 M/second, the “10^4 koff” value ([2]; MMP-2, values printed as 10^4 koff) was 5.9 ± 1.0 second and the Ki ([5]; MMP-9) was 3500 ± 200 nM. The “10^4 koff” value ([5]; MMP-9, values printed as 10^4 koff) was 9.0 ± 0.6 second, the “10^–3 kon” value ([5]; MMP-9, values printed as 10^–3 kon) was 0.26 ± 0.01 M/second and the Ki ([6]; read-out: Inhibition (Ki column), MMP-7, up to 60 μM) was over 60000 nM. The Ki ([7]; read-out: Inhibition (Ki column), MMP-1cat, up to 60 μM) was over 60000 nM, the Ki ([8]; MMP-14cat) was 740 ± 170 nM and the “10^4 koff” value ([8]; MMP-14cat, values printed as 10^4 koff) was 8.9 ± 2.1 second. The “10^–3 kon” value ([8]; MMP-14cat, values printed as 10^–3 kon) was 1.2 ± 0.1 M/second.

In the case of `C[C@@H]([C@H]1C[S+]1[O-])S(=O)(=O)c1ccc(Oc2ccccc2)cc1` (stereo partly drawn) [Compound 12, (2R)-2-(1S-(4-Phenoxyphenylsulfonyl)ethyl)thiirane S-oxide], the Ki ([2]; MMP-2) is reported as 20000 nM, the “inhibition at a fixed 60 μM inhibitor concentration” value ([5]; MMP-9, 60 μM) is reported as 30% and the “inhibition at a fixed 60 μM inhibitor concentration” value ([8]; MMP-14, 60 μM) is reported as 0%.

With `CC(C1CS1)S(=O)(=O)c1ccc(Oc2ccc(O)cc2)cc1` (centres unmarked) [Compound 13b] the inhibition in words ([4]; MMP-3, inhibitor concentrations up to 60 μM) was “Marginal to no inhibition”, the Ki ([2]; MMP-2) was 220 ± 90 nM and the Ki ([5]; MMP-9) was 1900 ± 700 nM. For the same compound, the inhibition in words ([6]; MMP-7, inhibitor concentrations up to 60 μM) was “Marginal to no inhibition”, the inhibition in words ([7]; MMP-1, inhibitor concentrations up to 60 μM) was “Marginal to no inhibition” and the Ki ([8]; MMP-14cat) was 2100 ± 700 nM.
